Data taken from ChEMBL document CHEMBL5385946, “Discovery of Dehydroabietylamine Derivatives as Antibacterial and Antifungal Agents” (J Nat Prod, 2024).
≈ marks a conversion by molar mass, not a printed value. Calls of active or inactive are those of the source. No cut-off for these calls is given here.

How the values were obtained:
[1] = system: Alternaria solani; test: Antifungal activity against Alternaria solani at 50 ug/ml; assay type: functional
[2] = system: Botrytis cinerea; test: Antifungal activity against Botrytis cinerea at 50 ug/ml; assay type: functional
[3] = system: Staphylococcus aureus; test: Antibacterial activity against Staphylococcus aureus CMCC(B)26003 by agar dilution method; assay type: functional
[4] = system: Rhizoctonia solani; test: Antifungal activity against Rhizoctonia solani at 50 ug/ml; assay type: functional
[5] = system: Escherichia coli; test: Antibacterial activity against Escherichia coli CMCC(B)44102 by agar dilution method; assay type: functional
[6] = system: Fusarium graminearum; test: Antifungal activity against Gibberella zeae at 50 ug/ml; assay type: functional
[7] = target: DNA topoisomerase II (Homo sapiens) (UniProt P11388+Q02880); test: Inhibition of DNA topoisomerase II (unknown origin); assay type: protein assay
[8] = system: Rhizoctonia solani; test: Antifungal activity against Rhizoctonia solani; assay type: functional, organism-based
[9] = system: Rhizoctonia solani; test: Antifungal activity against Rhizoctonia solani assessed as appearance of irregular intertwining at 25 ug/ml by SEM analysis; assay type: functional, organism-based; details: dose 25.0 µg/ml
[10] = system: Rhizoctonia solani; test: Antifungal activity against Rhizoctonia solani assessed as protective effect at 400 ug/ml; assay type: functional; details: dose 400 µg/ml
[11] = system: Rhizoctonia solani; test: Antifungal activity against Rhizoctonia solani assessed as appearance of contracted surface at 25 ug/ml by SEM analysis; assay type: functional, organism-based; details: dose 25.0 µg/ml
[12] = system: Rhizoctonia solani; test: Antifungal activity against Rhizoctonia solani assessed as appearance of twisted hyphae at 25 ug/ml by SEM analysis; assay type: functional, organism-based; details: dose 25.0 µg/ml
[13] = system: Rhizoctonia solani; test: Antifungal activity against Rhizoctonia solani assessed as protective effect at 200 ug/ml; assay type: functional; details: dose 200 µg/ml
[14] = system: Rhizoctonia solani; test: Antifungal activity against Rhizoctonia solani assessed as hyphal surface secretion at 25 ug/ml by SEM analysis; assay type: functional, organism-based; details: dose 25.0 µg/ml
[15] = system: Rhizoctonia solani; test: Antifungal activity against Rhizoctonia solani assessed as appearance of disordered mycelium winding incubated for 36 hrs; assay type: functional, organism-based
[16] = system: Rhizoctonia solani; test: Antifungal activity against Rhizoctonia solani assessed as appearance of wrinkling on mycelium surface incubated for 36 hrs; assay type: functional, organism-based
[17] = system: Rhizoctonia solani; test: Antifungal activity against Rhizoctonia solani assessed as mycelium shrinkage incubated for 36 hrs; assay type: functional, organism-based
[18] = system: Rhizoctonia solani; test: Antifungal activity against Rhizoctonia solani assessed as appearance of shrunk hyphae at 25 ug/ml by SEM analysis; assay type: functional, organism-based; details: dose 25.0 µg/ml
[19] = system: Rhizoctonia solani; test: Antifungal activity against Rhizoctonia solani assessed as appearance of rough surface at 25 ug/ml by SEM analysis; assay type: functional, organism-based; details: dose 25.0 µg/ml
[20] = system: Rhizoctonia solani; test: Antifungal activity against Rhizoctonia solani assessed as appearance of irregular mycelium bending incubated for 36 hrs; assay type: functional, organism-based

SMILES	inhibition at 50 µg/mL [1] [%]	inhibition at 50 µg/mL [2] [%]	MIC [3] [µg/mL]	inhibition at 50 µg/mL [4] [%]	MIC [5] [µg/mL]	inhibition at 50 µg/mL [6] [%]	further results
CC(C)c1ccc2c(c1)CC[C@H]1[C@@](CNC(=O)c3ccccn3)(Cc3ccccc3C#N)CCC[C@]21C	0	23.2	> 128	29.3	64 (≈ 130 µM)	0	
O=C(O)c1cn(C2CC2)c2cc(N3CCNCC3)c(F)cc2c1=O [CIPROFLOXACIN]			> 128				INH [7]: 1.11 ng/mL
CN[C@H](CC(C)C)C(=O)N[C@H]1C(=O)N[C@@H](CC(N)=O)C(=O)N[C@H]2C(=O)N[C@H]3C(=O)N[C@H](C(=O)N[C@H](C(=O)O)c4cc(O)cc(O)c4-c4cc3ccc4O)[C@H](O)c3ccc(c(Cl)c3)Oc3cc2cc(c3O[C@@H]2O[C@H](CO)[C@@H](O)[C@H](O)[C@H]2O[C@H]2C[C@](C)(N)[C@H](O)[C@H](C)O2)Oc2ccc(cc2Cl)[C@H]1O [VANCOMYCIN]					128 (≈ 88.3 µM)		
CC(C)c1ccc2c(c1)CC[C@H]1[C@@](CNC(=O)c3ccccn3)(Cc3ccc(N)cc3)CCC[C@]21C	4	5.6	32 (≈ 66.4 µM)	28.5	32 (≈ 66.4 µM)	3.5	
COc1ccc(C[C@@]2(CNC(=O)c3ccccn3)CCC[C@]3(C)c4ccc(C(C)C)cc4CC[C@@H]23)cc1	4.9	22.2	> 128	48.6	64 (≈ 129 µM)	4.5	
CC(C)c1ccc2c(c1)CC[C@H]1[C@@](CNC(=O)c3ccccn3)(Cc3ccccc3)CCC[C@]21C	2.5	12.4	> 128	1.9	32 (≈ 68.6 µM)	3.8	
CCOC(=O)c1ccc(C[C@@]2(CNC(=O)c3ccccn3)CCC[C@]3(C)c4ccc(C(C)C)cc4CC[C@@H]23)cc1	1.2	0	> 128	0	32 (≈ 59.4 µM)	14.1	
CC(C)c1ccc2c(c1)CC[C@H]1[C@@](CNC(=O)c3ccccn3)(Cc3ccc(OC(F)(F)F)cc3)CCC[C@]21C	0	0.9	> 128	26.1	64 (≈ 116 µM)	1.6	
CC(C)c1ccc2c(c1)CC[C@H]1[C@@](CNC(=O)c3ccccn3)(Cc3ccc(C(C)(C)C)cc3)CCC[C@]21C	31.6	38.4	> 128	65.4	8 (≈ 15.3 µM)	22.1	
COc1ccccc1C[C@@]1(CNC(=O)c2ccccn2)CCC[C@]2(C)c3ccc(C(C)C)cc3CC[C@@H]12	3	20.6	> 128	46.2	32 (≈ 64.4 µM)	0	
CC(C)c1ccc2c(c1)CC[C@H]1[C@@](CN)(Cc3ccc(C(F)(F)F)cc3)CCC[C@]21C	11.6	36.2	> 128	38.6	16 (≈ 37.2 µM)	25.5	
CC(C)c1ccc2c(c1)CC[C@H]1[C@@](CN)(Cc3ccc(C(C)(C)C)cc3)CCC[C@]21C	7.9	32.4	> 128	65	16 (≈ 38.3 µM)	3.6	
CC(C)c1ccc2c(c1)CC[C@H]1[C@@](CNC(=O)c3ccccn3)(Cc3ccc(C(F)(F)F)cc3)CCC[C@]21C	1.7	1.1	64 (≈ 120 µM)	16.3	64 (≈ 120 µM)	0	
CC(C)c1ccc2c(c1)CC[C@H]1[C@@](CNC(=O)c3ccccn3)(Cc3cccc(C#N)c3)CCC[C@]21C	3	6.3	> 128	5.8	32 (≈ 65.1 µM)	4.5	
COc1cccc(C[C@@]2(CNC(=O)c3ccccn3)CCC[C@]3(C)c4ccc(C(C)C)cc4CC[C@@H]23)c1	0	3.7	16 (≈ 32.2 µM)	5.2	8 (≈ 16.1 µM)	0	
CC(C)c1ccc2c(c1)CC[C@H]1[C@@](CNC(=O)c3ccccn3)(Cc3ccc(C#N)cc3)CCC[C@]21C	5.5	30.6	> 128	28.5	64 (≈ 130 µM)	0	
CC(C)c1ccc2c(c1)CC[C@H]1[C@@](CN)(Cc3ccc(Cl)cc3)CCC[C@]21C	20.2	47.3	8 (≈ 20.2 µM)	80.6	0.125 (≈ 0.316 µM)	25.9	INH [7]: 0.76 ng/mL; EC50 [8]: 7.86 µg/mL (≈ 19.9 µM)
Cc1ccc(C[C@@]2(CNC(=O)c3ccccn3)CCC[C@]3(C)c4ccc(C(C)C)cc4CC[C@@H]23)cc1C	4.1	15.2	> 128	7.4	64 (≈ 129 µM)	0	
O=C(Nc1ccccc1-c1ccc(Cl)cc1)c1cccnc1Cl [BOSCALID]	49.5	90.1		80.2		32	EC50 [8]: 1.57 µg/mL (≈ 4.57 µM)
CC(C)c1ccc2c(c1)CC[C@H]1[C@@](CNC(=O)c3ccccn3)(Cc3ccc(Br)cc3)CCC[C@]21C	1.1	20.1	32 (≈ 58.7 µM)	25.2	4 (≈ 7.33 µM)	0	
CC(C)c1ccc2c(c1)CC[C@H]1[C@@](CNC(=O)c3ccccn3)(Cc3ccc(F)cc3)CCC[C@]21C	1.7	0	32 (≈ 66 µM)	1.2	4 (≈ 8.25 µM)	0	
CC(C)c1ccc2c(c1)CC[C@H]1[C@@](CNC(=O)c3ccccn3)(Cc3cccc(C(F)(F)F)c3)CCC[C@]21C	1	0	> 128	8.2	64 (≈ 120 µM)	0	
COc1ccccc1C[C@@]1(CN)CCC[C@]2(C)c3ccc(C(C)C)cc3CC[C@@H]12	16.9	51.4	> 128	44.5	32 (≈ 81.7 µM)	24.8	
COc1ccc(C[C@@]2(CN)CCC[C@]3(C)c4ccc(C(C)C)cc4CC[C@@H]23)cc1	22.1	85.2	> 128	95.6	32 (≈ 81.7 µM)	34.8	Activity [9]: Active; Activity [10]: 76.9%; Activity [11]: Active; Activity [12]: Active; Activity [13]: 27.7%; EC50 [8]: 5.21 µg/mL (≈ 13.3 µM); Activity [14]: Active; Activity [15]: Active; Activity [16]: Active; Activity [17]: Active; Activity [18]: Active; Activity [19]: Active; Activity [20]: Active
CC(C)c1ccc2c(c1)CC[C@H]1[C@@](CNC(=O)c3ccccn3)(Cc3ccc(Cl)cc3)CCC[C@]21C	35	51.3	8 (≈ 16 µM)	55.3	32 (≈ 63.9 µM)	45.7	
OCC1=C[C@H](N[C@H]2C[C@H](CO)[C@@H](O[C@@H]3O[C@H](CO)[C@@H](O)[C@H](O)[C@H]3O)[C@H](O)[C@H]2O)[C@H](O)[C@@H](O)[C@@H]1O [VALIDAMYCIN]							Activity [10]: 83.1%
